In patent publication US12522594B2, “2-heteroaryl-3-oxo-2,3-dihydropyridazine-4-carboxamides for the treatment of cancer” (Deutsches Krebsforschungszentrum, priority 2017, dated 2026):
pIC50: −log10 of the molar value.

Assays:
Type in all cases: cell-based
AHR [1] = target: T1, AHR (Homo sapiens, UniProt P35869); experiment: In vitro assay 3: AHR-regulated CYP1A1 expression in human cell line (U937, qPCR, KA stimulation); settings: U937 cells, 200 uM KA, 6 hours, CYP1A1 expression by qPCR; read-out: Assay 3: Hum CYP1A1 Antagonism IC50
T1 sequence (P35869 11-848): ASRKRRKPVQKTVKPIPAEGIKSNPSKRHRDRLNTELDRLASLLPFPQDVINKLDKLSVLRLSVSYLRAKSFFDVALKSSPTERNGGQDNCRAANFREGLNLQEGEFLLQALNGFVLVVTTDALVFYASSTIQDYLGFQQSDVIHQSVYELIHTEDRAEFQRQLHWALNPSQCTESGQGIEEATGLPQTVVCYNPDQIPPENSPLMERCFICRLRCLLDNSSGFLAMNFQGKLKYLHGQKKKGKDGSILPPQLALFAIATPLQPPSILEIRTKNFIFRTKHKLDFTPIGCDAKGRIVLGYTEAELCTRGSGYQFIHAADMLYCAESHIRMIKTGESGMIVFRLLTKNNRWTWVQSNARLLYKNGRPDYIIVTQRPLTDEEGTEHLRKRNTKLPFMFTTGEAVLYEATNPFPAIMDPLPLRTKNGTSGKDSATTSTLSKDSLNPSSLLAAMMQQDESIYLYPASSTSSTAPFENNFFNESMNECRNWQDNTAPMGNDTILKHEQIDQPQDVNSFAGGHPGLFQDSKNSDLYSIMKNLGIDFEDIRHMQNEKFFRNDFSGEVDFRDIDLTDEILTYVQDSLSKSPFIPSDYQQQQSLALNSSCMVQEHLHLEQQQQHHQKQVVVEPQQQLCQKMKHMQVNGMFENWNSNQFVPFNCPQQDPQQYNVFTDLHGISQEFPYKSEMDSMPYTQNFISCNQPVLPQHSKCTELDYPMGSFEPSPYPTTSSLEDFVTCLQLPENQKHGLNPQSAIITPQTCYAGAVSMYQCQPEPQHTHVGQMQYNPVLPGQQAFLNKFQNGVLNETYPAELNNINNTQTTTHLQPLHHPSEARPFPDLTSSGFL
How it was run: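 U937 human monocytic cells were stimulated with 200 uM KA for 6 h, with or without compound at eight concentrations from 1 nM to 3 uM, in duplicate. CYP1A1 mRNA was quantified by Taqman qPCR as fold expression normalised to HPRT. Unstimulated cells served as negative control.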

AHR [2] = target: T1, AHR; experiment: In vitro assay 1: antagonism in human cell line (transactivation assay, U87 cells prestimulated with kynurenic acid, DRE firefly luciferase reporter); design: host or cells: U87 glioblastoma cells, stably transfected with DRE firefly luciferase and renilla reporter constructs; settings: 150 uM kynurenic acid, 20 hours, read-out: Assay 1: AHR-luc Hum Antagonism IC50
How it was run: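 U87 glioblastoma cells with endogenous AHR, stably carrying a DRE-driven firefly luciferase reporter and a constitutive renilla reporter. Cells prestimulated with the AHR agonist kynurenic acid before compound addition; data normalized to positive and negative controls.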

AHR [3] = target: T1, AHR; experiment: In vitro assay 2: agonism in human cell line (transactivation assay, U87 cells, DRE firefly luciferase reporter); design: host or cells: U87 glioblastoma cells, stably transfected with DRE firefly luciferase and renilla reporter constructs; settings: no kynurenic acid, 20 hours, read-out: Assay 2: AHR-luc Hum Agonism IC50
How it was run: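 U87 glioblastoma cells with endogenous AHR, stably carrying DRE-driven firefly luciferase and constitutive renilla reporters. 300 uM kynurenic acid served as positive activation control; data normalized to positive and negative controls.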

| Compound | pIC50 (AHR [1]) | pIC50 (AHR [2]) | pIC50 (AHR [3]) |
| --- | --- | --- | --- |
| C[C@@H](CO)NC(=O)c1cc(-c2ccc(Cl)cc2)nn(-c2cccnc2)c1=O [Example 68, 6-(4-Chlorophenyl)-N-[(2S)-1-hydroxypropan-2-yl]-3-oxo-2-(pyridin-3-yl)-2,3-dihydropyridazine-4-carboxamide] | 7.66 | 7.62 | < 4.70 |
| CC(C)(O)CNC(=O)c1cc(-c2ccc(Cl)cc2)nn(-c2cccnc2)c1=O [Example 71, 6-(4-Chlorophenyl)-N-(2-hydroxy-2-methylpropyl)-3-oxo-2-(pyridin-3-yl)-2,3-dihydropyridazine-4-carboxamide] | 7.22 | 7.42 | < 4.70 |
| O=C(NC[C@H](O)CO)c1cc(-c2ccc(Cl)cc2)nn(-c2cccnc2)c1=O [Example 72, (−)-6-(4-Chlorophenyl)-N-[(2S)-2,3-dihydroxypropyl]-3-oxo-2-(pyridin-3-yl)-2,3-dihydropyridazine-4-carboxamide] | 6.31 | 6.74 | < 4.70 |
| O=C(NC[C@@H](O)CO)c1cc(-c2ccc(Cl)cc2)nn(-c2cccnc2)c1=O [Example 73, (+)-6-(4-Chlorophenyl)-N-[(2R)-2,3-dihydroxypropyl]-3-oxo-2-(pyridin-3-yl)-2,3-dihydropyridazine-4-carboxamide] | 6.45 | 6.55 | < 4.70 |
| C[C@@H](CO)NC(=O)c1cc(-c2ccc(Cl)cc2)nn(-c2cncc(F)c2)c1=O [Example 80, 6-(4-Chlorophenyl)-2-(5-fluoropyridin-3-yl)-N-[(2S)-1-hydroxypropan-2-yl]-3-oxo-2,3-dihydropyridazine-4-carboxamide] | 7.49 | 7.57 | < 4.70 |
| CC(C)(O)CNC(=O)c1cc(-c2ccc(Cl)cc2)nn(-c2cncc(F)c2)c1=O [Example 82, 6-(4-Chlorophenyl)-2-(5-fluoropyridin-3-yl)-N-(2-hydroxy-2-methylpropyl)-3-oxo-2,3-dihydropyridazine-4-carboxamide] | 7.46 | 7.42 | < 4.70 |
| O=C(N[C@@H]1CCC[C@@H]1O)c1cc(-c2ccc(C(F)(F)F)cc2)nn(-c2cccnc2)c1=O [Example 103, N-[(1R,2S)-2-Hydroxycyclopentyl]-3-oxo-2-(pyridin-3-yl)-6-[4-(trifluoromethyl)phenyl]-2,3-dihydropyridazine-4-carboxamide] | 7.61 | 7.88 | < 4.70 |

These reach a higher pIC50 (AHR [1]). Values come first.

| pIC50 (AHR [1]) | pIC50 (AHR [2]) | pIC50 (AHR [3]) | Compound |
| --- | --- | --- | --- |
| 8.36 | 7.61 | < 4.70 | O=C(N[C@H](CO)CF)c1cc(-c2ccc(Cl)cc2)nn(-c2cccnc2)c1=O [Example 93, (+)-6-(4-Chlorophenyl)-N-[(2R)-1-fluoro-3-hydroxypropan-2-yl]-3-oxo-2-(pyridin-3-yl)-2,3-dihydropyridazine-4-carboxamide] |
| 7.78 | 8.07 | < 4.70 | O=C(N[C@H](CO)C1CC1)c1cc(-c2ccc(C(F)(F)F)cc2)nn(-c2cccnc2)c1=O [Example 94, N-[(1S)-1-Cyclopropyl-2-hydroxyethyl]-3-oxo-2-(pyridin-3-yl)-6-[4-(trifluoromethyl)phenyl]-2,3-dihydropyridazine-4-carboxamide] |
| 8.42 | 8.44 | < 4.70 | O=C(N[C@H](CO)C(F)(F)F)c1cc(-c2ccc(Cl)cc2)nn(-c2cccnc2)c1=O [Example 96, (+)-6-(4-Chlorophenyl)-3-oxo-2-(pyridin-3-yl)-N-[(2R)-1,1,1-trifluoro-3-hydroxypropan-2-yl]-2,3-dihydropyridazine-4-carboxamide] |
| 8.77 | 8.73 | < 4.70 | O=C(N[C@H]1CCC[C@@H]1O)c1cc(-c2ccc(C(F)(F)F)cc2)nn(-c2cccnc2)c1=O [Example 102, N-[(1S,2S)-2-Hydroxycyclopentyl]-3-oxo-2-(pyridin-3-yl)-6-[4-(trifluoromethyl)phenyl]-2,3-dihydropyridazine-4-carboxamide] |
